Reference: patent US20250250265A1, “BENZOTHIAZOLE-PHENYLSULFONYL-PIPERIDINE ANALOGS AS ACTIVATORS OF NACYLPHOSPHATIDYLETHANOLAMINE HYDROLYZING PHOSPHOLIPASE D” (priority 2022, published 2025)
“Also recorded” adds a separate entry of the source. Like-named read-outs stand apart in the source and are kept apart here.

Tests used:
[1] = target: T1, soluble epoxide hydrolase (sEH) (Homo sapiens, UniProt P34913); test: sEH activity assay (Cayman Chemicals); type: biochemical; conditions: for Remaining sEH Activity (33 μM): Table 3; for inhibition at 33 µM: 33 μM compound, compared to vehicle (0%); for inhibition of sEH activity: graded concentrations
T1 construct: purchased Cayman Chemicals
T1 sequence (P34913 1-555): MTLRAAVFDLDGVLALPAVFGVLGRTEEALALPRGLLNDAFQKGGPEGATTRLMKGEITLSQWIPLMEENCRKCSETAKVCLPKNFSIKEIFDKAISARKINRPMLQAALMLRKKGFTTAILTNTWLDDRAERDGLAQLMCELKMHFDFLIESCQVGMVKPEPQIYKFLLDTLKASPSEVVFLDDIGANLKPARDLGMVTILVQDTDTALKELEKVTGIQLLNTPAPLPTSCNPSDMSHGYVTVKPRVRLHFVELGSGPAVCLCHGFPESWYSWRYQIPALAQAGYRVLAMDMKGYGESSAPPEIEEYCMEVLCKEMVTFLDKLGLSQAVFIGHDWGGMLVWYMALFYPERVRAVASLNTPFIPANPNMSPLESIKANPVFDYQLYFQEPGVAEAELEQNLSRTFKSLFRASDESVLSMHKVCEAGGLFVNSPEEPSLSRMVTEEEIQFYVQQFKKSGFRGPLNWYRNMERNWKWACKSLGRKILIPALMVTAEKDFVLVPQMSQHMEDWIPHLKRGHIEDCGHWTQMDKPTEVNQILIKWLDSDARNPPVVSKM
Method: Concentration response curves were plotted for VU534 for the enzymes fatty acid amide hydrolase (FAAH) and soluble epoxide hydrolase (sEH).
The fluorescence interference assay was performed using the same method as the HTS assay, but with BODIPY-FL C5 (Thermo Fisher Scientific) used in place of PED-A1. sEH and FAAH activity assays were performed according to the manufacturer's specifications (Cayman Chemicals).

[2] = tested on: RAW264.7 mouse macrophages; test: Cytotoxicity (MTT) in RAW264.7 macrophages; type: cell-based; conditions: for % viability RAW 264.7 (33 μM): Table 3; for 33 μM Mϕ % Viability: Table 2, 33 μM compound; for cytotoxicity in RAW264.7 cells: up to / at 30 μM
Method: Cytotoxicity was measured using MTT as previously described except that the studies used 96-well plates with 100 μL of 0.3 mg/mL MTT solution was added after 24 h of treatment and then replaced after 3 h with 0.1 M HCl in isopropanol. See Aggarwal et al., J. Biol. Chem. 295(21): 7289-7300 (2020). Viability was expressed as percent absorbance at 560 nm relative to vehicle controls.

[3] = target: T2, recombinant mouse NAPE-PLD (Mus musculus, UniProt Q8BH82); test: In vitro fluorescence NAPE-PLD activity assay (HTS/CRC) with recombinant mouse NAPE-PLD and PED-A1; type: biochemical; conditions: for Emax (95% Cl): Table 4, maximal efficacy as fold increase in NAPE-PLD activity versus vehicle only; for bAC175: compound concentration to induce 175% basal activity; for Max % bA (%): maximum induced activity compared to basal (100%) activity
T2 construct: hexahistidine (His6) (C); made in house; host or cells: E. coli
T2 sequence (Q8BH82 1-396): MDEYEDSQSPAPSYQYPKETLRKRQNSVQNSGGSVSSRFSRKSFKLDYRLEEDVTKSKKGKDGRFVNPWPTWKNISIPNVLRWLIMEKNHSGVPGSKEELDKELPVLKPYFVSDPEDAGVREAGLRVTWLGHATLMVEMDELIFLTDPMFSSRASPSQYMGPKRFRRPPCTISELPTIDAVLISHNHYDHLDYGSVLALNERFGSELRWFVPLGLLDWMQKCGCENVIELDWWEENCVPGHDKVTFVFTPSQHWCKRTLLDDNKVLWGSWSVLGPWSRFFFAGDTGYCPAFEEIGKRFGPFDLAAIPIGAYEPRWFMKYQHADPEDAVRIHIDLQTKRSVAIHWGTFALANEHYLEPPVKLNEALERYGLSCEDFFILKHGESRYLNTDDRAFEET
Method: Using the fluorogenic NAPE substrate, PED-A1, and recombinant mouse NAPE-PLD (rNAPE-PLD), an in vitro high-throughput (HTS) assay was conducted to screen ˜40,000 compounds for their ability to modulate NAPE-PLD activity. The HTS assay enabled the detection of both NAPE-PLD activators and inhibitors. […] Initial structure-activity response studies with the top hits identified benzothiazole phenylsulfonyl-piperidine carboxamide analogs (BT-PSP analogs) as lead compounds for NAPE-PLD activators (Table 1). The lead BT-PSP analog identified, VU534, induces 50% of its activation effect on NAPE-PLD at 270 nM (AC50 270 nM), and induces a maximal effect of 195% of basal NAPE-PLD activity (Table 1).
In vitro fluorescence NAPE-PLD activity assays using recombinant NAPE-PLD and either PED-A1 or flame-NAPE as fluorogenic substrate were performed as previously described except with small modifications as noted below. See Aggarwal et al., J. Biol. Chem. 295(21): 7289-7300 (2020); Zarrow et al., J. Lipid Res. 63(1): 100156 (2022).
For the HTS assays, test compounds were incubated with recombinant enzyme for 1 h prior to adding PED-A1 (final 0.4 μM) mixed with N-palmitoyl-dioleoyl-PE (final 3.6 μM) to adjust for the high sensitivity of the Panoptic instrument (WaveFront Biosciences). Assays used black-wall, clear-bottom, non-sterile, and non-treated 384-well plates (Greiner Bio-One 781906). The assay was read in kinetic fluorescence mode on the Panoptic instrument for 4 min and the slope of the signal from 30-100 s was used for analysis. A total of 39,328 compounds from the Vanderbilt Discovery Collection were tested, each at 10 μM. The tested compounds were chosen to represent a structurally diverse selection from the full library. Each 384-well plate included 320 test compound wells and 64 control wells. Unlike previous pilot screening assays, bithionol (10 μM final) was used in place of lithocholic acid (100 μM final) as the inhibitor control. Before performing high-throughput screening, a checkerboard assay was performed to validate the assay parameters. This yielded a Z′ score of 0.676. Z′ scores were also calculated for each plate during screening, and plates with scores <0.5 were re-run. The average Z′ across all screening plates was 0.52, and the total hit rate was 3.6%. B-scores were calculated from the initial slopes across each plate using WaveGuide software (WaveFront Biosiences). Modulator hits were defined as compounds with absolute B-scores of 3 or higher. The number of compounds in various B-score ranges were as follows: […], 12 compounds; −10 to −5, 221 compounds; −5 to −3, 770 compounds; −3 to 3, 37924 compounds; 3 to 4, 314 compounds; 4 to 6, 70 compounds; 6 to 10, 15 compounds. Activator hits with B-scores of >3 were selected for the replication assay and a selection of analogs of the activators.
Concentration response curve (CRC) experiments used the same assay conditions as the HTS assay, except that graded concentrations of each test compound were used, with total amount of vehicle (DMSO) kept constant. CRC experiments with purified recombinant mouse NAPE-PLD were performed on two separate days, with values from each day normalized to vehicle only controls on same plate, and then all normalized values from both days averaged together. CRC experiments with human NAPE-PLD represent value from only a single day, due to limited amounts of this recombinant enzyme.

[4] = Table 3, read-out: In vitro EC50
[5] = Table 3, read-out: In vitro Emax (100% activity is baseline activity of vehicle only)
[6] = Table 1, concentration for 50% maximum activation from basal activity (no activator)
[7] = Table 2, maximal induced activity for recombinant NAPE-PLD compared to basal (100%), read-out: Emax (%)
[8] = Table 2, rNAPE-PLD activity assay, read-out: EC50

SMILES	Remaining sEH Activity (33 μM) [1] [%]	% viability RAW 264.7 (33 μM) [2] [%]	EC50 [3, 4] [µM]	Emax [3, 5] [%]	Emax (95% Cl) [3]	inhibition at 33 µM [1] [%]	33 μM Mϕ % Viability [2] [%]	bAC175 ([3]; Table 1) [nM]	AC50 [3, 6] [µM]	Max % bA (%) ([3]; Table 1)	Emax [3, 7] [%]	EC50 [3, 8] [µM]	inhibition of sEH activity [1]	cytotoxicity in RAW264.7 cells [2]	AC50 (nM) [3, 6]	EC50 (μM) ([3]; Table 2, rNAPE-PLD activity assay)
Cc1cccc2sc(NC(=O)C3CCN(S(=O)(=O)c4ccc(F)c(Cl)c4)CC3)nc12 [VU209]	62	88	4.7	179	1.9 (1.8-2.1) fold											
O=C(Nc1nc2ccccc2s1)C1CCN(S(=O)(=O)c2cccnc2)CC1 [VU203]	59	57	3.4	183	1.8 (1.7-2.0) fold											
Cn1cc(S(=O)(=O)N2CCC(C(=O)Nc3nc4ccccc4s3)CC2)cn1 [VU227]	63	106	~2.9	~150	1.7 (1.6-1.9) fold											
Cc1ccc(S(=O)(=O)N2CCC(C(=O)Nc3nc4c(C)cc(C)cc4s3)CC2)cc1 [VU575]	55	85	0.19	215	2.4 (2.3-2.5) fold	45	>85	1690	0.95	210	220	0.19				
Cc1cccc2sc(NC(=O)C3CCN(S(=O)(=O)c4cccnc4)CC3)nc12 [MRJ-058C]						50	>85				175	0.94				
Cc1cc(C)c2sc(NC(=O)C3CCN(S(=O)(=O)c4ccc(F)cc4)CC3)nc2c1 [VU534, N-(5,7-Dimethylbenzo[d]thiazol-2-yl)-1-((4-fluorophenyl)sulfonyl)piperidine-4-carboxamide]	27	89	0.29	209	2.1 (2.0-2.2) fold	75	>85	750	0.27	195	205	0.28	inhibition of sEH; also recorded: modest inhibition; also recorded: inhibits	minimal cytotoxicity		
Cc1cccc2sc(NC(=O)C3CCN(S(=O)(=O)c4cnn(C)c4)CC3)nc12 [VU210]	81	86	1.5	239	2.4 (2.3-2.6) fold											
O=C(Nc1nc2ccccc2s1)C1CCN(S(=O)(=O)c2ccc(F)c(Cl)c2)CC1 [VU233]	117	111			<1.2 fold								neither VU533 nor VU233 significantly inhibited seH	no cytotoxicity		
Cc1cccc2sc(NC(=O)C3CCN(S(=O)(=O)c4cccnc4)CC3)nc12 [VU211]	48	88	~0.94	~176	2.1 (2.0-2.2) fold											
Cc1cc2nc(NC(=O)C3CCN(S(=O)(=O)c4ccc(F)cc4)CC3)sc2cc1C [VU536]	49	114	0.89	227	2.3 (2.2-2.4) fold	50	>85	2400	1.54	215	225	0.89				
Cc1cccc2sc(NC(=O)C3CCN(S(=O)(=O)c4ccc(F)c(Cl)c4)CC3)nc12 [MRJ-058B]						50	>85				180	4.7				
Cc1ccc(C)c2sc(NC(=O)C3CCN(S(=O)(=O)c4ccc(F)cc4)CC3)nc12 [VU533]					2.6 (2.6-2.8) fold					<120	< 120		neither VU533 nor VU233 significantly inhibited seH	no cytotoxicity	Not active	Inactive
Cc1ccc2nc(NC(=O)C3CCN(S(=O)(=O)c4ccc(F)cc4)CC3)sc2c1 [VU486]	60	89	0.24	189	1.8 (1.7-1.9) fold	40	>85				190	0.24				
Cc1ccc2sc(NC(=O)C3CCN(S(=O)(=O)c4ccc(F)cc4)CC3)nc2c1C [VU517]	29	83	1.5	213	2.0 (2.0-2.1) fold	70	80	1480	0.767	190	210	1.5				
Cc1cccc2sc(NC(=O)C3CCN(S(=O)(=O)c4cnn(C)c4)CC3)nc12 [MRJ-058D]						20	>85				240	1.5				
